Experimental data as given in publication PMC3202029 (Journal of ethnopharmacology, 2011).

Legend:
Transepithelial transfer = assay type: in vitro ADME, human; details: human, Caco-2, pH 7.4
Caco-2 cell monolayers = assay: Transepithelial transfer; assay type: in vitro ADME, human; details: for compound found in cells: cell homogenate after 4 h, before or after deconjugation; for uptake (transport rate): 4 h
[1] = ref Konishi et al. 2005; Bérangère et al., 2004; cited from earlier work

Molecule	recovery at 4 h, 10 μM (Transepithelial transfer) [%]	basolateral detection at 0.5 and 1 h (Caco-2 cell monolayers; before deconjugation, 10 μM RA)	compound found in cells (Caco-2 cell monolayers)	partition coefficient (Log P) [1]	basolateral recovery of paracellular marker (Caco-2 cell monolayers; 100 μM LY) [%]	Papp before deconjugation (Caco-2 cell monolayers; apical to basolateral, HBSS pH 7.4, RA 10 μM, UA 5, 10 and 20 μM, LY 100 μM) [cm/s ×10^−6]	detection of UA after apical application of P. vulgaris extracts (Caco-2 cell monolayers; apically-applied P. vulgaris extracts containing 1-10 μM RA)	uptake (transport rate) (Caco-2 cell monolayers; highest tested concentration, 20 μM) [μM/h/cm^2]	uptake (transport rate) (Caco-2 cell monolayers; lowest tested concentration, 5 μM) [μM/h/cm^2]
O=C(/C=C/c1ccc(O)c(O)c1)O[C@H](Cc1ccc(O)c(O)c1)C(=O)O [RA, Rosmarinic acid]	86.7 ± 2.9	not detected	neither RA nor UA was found in cells	0.2					
lucifer yellow [LY, reference compound]					0.5 ± 0.1	0.3 ± 0.1			
C[C@H]1[C@H](C)CC[C@]2(C(=O)O)CC[C@]3(C)C(=CC[C@@H]4[C@@]5(C)CC[C@H](O)C(C)(C)[C@@H]5CC[C@]43C)[C@H]12 [UA, Ursolic acid]			neither RA nor UA was found in cells	6.4			not detected	0.2 ± 0.04	0.03 ± 0.01
